Some test systems named below: M14; SF-539; HL-60; OVCAR-3; UO-31; UACC-257; MOLT-4; SW-620; TK-10; OVCAR-8; SR; IGROV-1; CCRF-CEM; HCT-116; SNB-19; A549; PC-3; MCF7; MDA-MB-231.
What all share (assay): DTP human tumour cell line panel, 48 h

Structures are written as SMILES.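 Grown in 96-well plates, cells were treated for 48 hours with each compound at five concentrations. Insufficient inhibition: endpoint recorded as highest concentration tested. Abbreviation: GI50, concentration required for 50% inhibition of growth.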 Calls of active or inactive are those of the source. Rule as the data show it: active = GI50 up to about 1.1 µM and inactive = higher.

Turning to `CCCCCCCCCCCCCCCc1nnc(SCC(=O)O)[nH]1`, the GI50 (as a rule, the concentration giving 50% growth inhibition) was 19.3 µM (inactive) in the test with M14; 48 µM (inactive) with SF-539; 34.8 µM (inactive) with HL-60; > 100 µM (inactive) in the test on OVCAR-3; 49.9 µM (inactive) in the test on UO-31; > 100 µM (inactive) with UACC-257. The GI50 in the test on MOLT-4 is 11.7 µM (inactive); with SW-620 it was 95.5 µM (inactive); in the test on TK-10, 13.2 µM (inactive); with OVCAR-8, 40.8 µM (inactive); in the test on SR, 60 µM (inactive); in the test with IGROV-1 it was 36.1 µM (inactive). Besides, the GI50 in the test with CCRF-CEM was 24.2 µM (inactive); in the test on HCT-116, 92.7 µM (inactive); in the test on SNB-19, 49.7 µM (inactive); with A549 it was 79.1 µM (inactive).

As for `CCCCc1c2c(nc3c1CC/C(=C\c1ccccc1)C3=O)CCCC2`, the GI50 in the test with M14 is 4.91 µM (inactive); in the test on SF-539 it was 2.29 µM (inactive); with HL-60, 2.79 µM (inactive); with OVCAR-3 it was 3.25 µM (inactive); in the test on UO-31, 6.05 µM (inactive); in the test with UACC-257 it was 5.78 µM (inactive). In addition, the GI50 was 3.33 µM (inactive) in the test with MOLT-4; 1.99 µM (inactive) with SW-620; 9.33 µM (inactive) in the test with TK-10; 1.98 µM (inactive) with OVCAR-8; 3.54 µM (inactive) in the test with SR; 4.61 µM (inactive) with IGROV-1. The GI50 in the test with CCRF-CEM was 3.43 µM (inactive); in the test with HCT-116, 4.9 µM (inactive); in the test with SNB-19, 3.48 µM (inactive); in the test with A549, 12.3 µM (inactive).

For the compound `CC(=O)C1Cn2c(=O)c3cc4ccccc4cc3c(=O)n2C=C1C` (stereo unspecified), the GI50 in the test with M14, with SF-539, in the test on HL-60, in the test with OVCAR-3, in the test with UO-31 and in the test on UACC-257 was > 100 µM (inactive) throughout. For the same compound, the GI50 in the test with MOLT-4, with SW-620, in the test on TK-10, with OVCAR-8, in the test with SR and in the test with IGROV-1 was > 100 µM (inactive) throughout. Besides, the GI50 in the test with CCRF-CEM, in the test with HCT-116, in the test with SNB-19 and with A549 was > 100 µM (inactive) each time.

Take `N#C/C(=C(/S)Nc1ccccc1)c1nc2ccccc2[nH]1`: the GI50 with M14, in the test with SF-539, in the test with HL-60, in the test on OVCAR-3, in the test with UO-31 and in the test on UACC-257 was > 10 µM (inactive) throughout. The GI50 is > 10 µM (inactive) in the test with MOLT-4; > 10 µM (inactive) in the test on SW-620; > 10 µM (inactive) in the test on TK-10; > 10 µM (inactive) with OVCAR-8; > 10 µM (inactive) in the test on SR; 1 µM (active) in the test with IGROV-1. Also, the GI50 in the test on CCRF-CEM, with HCT-116, with SNB-19 and in the test on A549 was > 10 µM (inactive) throughout.

For `Cc1cc(C=O)c2c(=O)c3c(O)ccc(/C=C/C(C)C)c3oc2c1`, the GI50 in the test with M14 is 42.1 µM (inactive); in the test with SF-539, > 100 µM (inactive); in the test on HL-60, 28.3 µM (inactive); in the test with OVCAR-3, 43.2 µM (inactive); in the test on UO-31 it was > 100 µM (inactive); in the test on UACC-257, > 100 µM (inactive). In addition, the GI50 with MOLT-4 was 28.9 µM (inactive); in the test on SW-620, 28.1 µM (inactive); in the test with TK-10, > 100 µM (inactive); in the test with OVCAR-8, 65.2 µM (inactive); with SR it was 26.7 µM (inactive); in the test on IGROV-1, 52.4 µM (inactive). Further, the GI50 with CCRF-CEM is > 10 µM (inactive); in the test with HCT-116, 20.9 µM (inactive); in the test with SNB-19, > 100 µM (inactive); with A549, > 100 µM (inactive).

For the compound `COc1cc(S(=O)(=O)Nc2ccc(-c3csc(N4C(=O)C(C)SC4c4cccs4)n3)cc2)ccc1Cl` (stereo unspecified), the GI50 in the test on M14 was 30.8 µM (inactive); with SF-539, 48.9 µM (inactive); in the test on HL-60 it was 18.7 µM (inactive); in the test with OVCAR-3, 58.5 µM (inactive); in the test on UO-31, 46.3 µM (inactive); in the test with MOLT-4, 16 µM (inactive). Besides, the GI50 was 15.7 µM (inactive) in the test on PC-3; 34.4 µM (inactive) in the test with SW-620; 32.4 µM (inactive) in the test with OVCAR-8; 33.8 µM (inactive) in the test with SR; 29.1 µM (inactive) with IGROV-1; > 100 µM (inactive) in the test on MCF7. Moreover, the GI50 in the test on CCRF-CEM was 8.28 µM (inactive); in the test with HCT-116 it was 35.1 µM (inactive).

Turning to `C=C1c2nc3ccccc3n2C=C(c2ccccc2)N1c1ccc(C)cc1`, the GI50 with M14 was > 100 µM (inactive); in the test on SF-539, 63.8 µM (inactive); with OVCAR-3, 75 µM (inactive); with UO-31 it was 36.1 µM (inactive); in the test with UACC-257, 80.4 µM (inactive); with MDA-MB-231, > 100 µM (inactive). For the same compound, the GI50 in the test with MOLT-4 is 20.6 µM (inactive); in the test on PC-3 it was 50.4 µM (inactive); in the test on SW-620, 71.1 µM (inactive); in the test on TK-10, 79.3 µM (inactive); in the test with OVCAR-8, 48.5 µM (inactive); in the test on SR it was 10.3 µM (inactive). For the same compound, the GI50 was > 100 µM (inactive) in the test with IGROV-1; 29.5 µM (inactive) with MCF7; 55.6 µM (inactive) with CCRF-CEM; 36.9 µM (inactive) with HCT-116; > 100 µM (inactive) with SNB-19; > 100 µM (inactive) in the test with A549.

On to `Cc1ccc(NC(=O)CC/C(CC(=O)c2ccc(Cl)cc2)=N\NC(=O)C(=O)NN)cc1C`, for which the GI50 in the test on M14, in the test on SF-539, in the test with HL-60, in the test with OVCAR-3, in the test with UO-31 and in the test on UACC-257 was > 100 µM (inactive) throughout. For the same compound, the GI50 in the test with MOLT-4, in the test with SW-620, with TK-10, in the test with OVCAR-8, in the test on SR and with IGROV-1 was > 100 µM (inactive) in each case. Besides, the GI50 in the test on CCRF-CEM, in the test on HCT-116, in the test on SNB-19 and in the test on A549 was > 100 µM (inactive) throughout.

On to `O=C(NC1CCN(Cc2ccccc2)CC1)c1cccc(I)c1`, for which the GI50 was 17.2 µM (inactive) with M14; 22.8 µM (inactive) with SF-539; 34.4 µM (inactive) in the test with HL-60; 40 µM (inactive) in the test on OVCAR-3; 17 µM (inactive) in the test on UO-31; 16.4 µM (inactive) with UACC-257. Besides, the GI50 with MDA-MB-231 was 17 µM (inactive); in the test on MOLT-4 it was 13.9 µM (inactive); with PC-3, 18.5 µM (inactive); in the test on SW-620 it was 17.1 µM (inactive); in the test with TK-10, 22.8 µM (inactive); in the test with OVCAR-8, 39.2 µM (inactive). Further, the GI50 in the test on SR was 18.8 µM (inactive); in the test on IGROV-1 it was 39 µM (inactive); in the test with CCRF-CEM, 33.3 µM (inactive); with HCT-116, 15.3 µM (inactive); in the test on SNB-19, 35 µM (inactive); in the test with A549 it was 31.9 µM (inactive).
